IC50 and Ki data for eight compounds are collected here from EP1082127B1 (WARNER-LAMBERT COMPANY LLC, priority 1998, dated 1999).

The target in assay [1] is T1, Ich-2 enzyme (Homo sapiens, UniProt P49662).
T1 sequence (P49662 81-270 limits assumed): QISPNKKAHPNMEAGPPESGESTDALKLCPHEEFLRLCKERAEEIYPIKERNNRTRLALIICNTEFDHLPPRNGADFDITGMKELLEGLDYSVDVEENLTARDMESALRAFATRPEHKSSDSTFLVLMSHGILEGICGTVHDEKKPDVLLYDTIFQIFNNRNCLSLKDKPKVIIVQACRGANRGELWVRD
T1 sequence (P49662 290-377 limits assumed): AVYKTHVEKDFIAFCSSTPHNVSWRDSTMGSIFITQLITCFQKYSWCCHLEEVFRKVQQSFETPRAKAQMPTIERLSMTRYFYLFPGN
As to the kind of experiment: Ich-2 Colorimetric Dose-Response (IC50) Assay. The settings on record: enzyme 64 nM, 60 µM Ac-Leu-Glu-Val-Asp-pNA; read-out: ICH2 IC50 (Caspase 4). The assay is classed as biochemical. The method, then:
Diluted inhibitor stocks are prepared by two-fold serial dilution from a primary stock whose concentration is selected (based on screening results or on prior attempts at IC50 evaluation) to achieve approximately 95% inhibition in the most concentrated well. Aliquots of each dilution are transferred to a microtitre plate in triplicate.
ICE enzyme is diluted to approximately 24 nM in HGE buffer (100 mM Hepes pH 7.5, 0.5 mM EDTA, 20% glycerol, 0.1% Bovine Serum Albumin (BSA), and activated by adding dithiothreitol (DTT) to a final concentration of 5 mM. The activated enzyme is then aliquoted into wells containing inhibitor or vehicle, and the plate is preincubated for 60 minutes at ambient temperature. Substrate (Ac-Tyr-Val-Ala-Asp-pNA) is added to each well to a final concentration of 50 µM, and plates are placed in the microtitre plate-reader thermostated to 25°C. Beginning 5 minutes after addition of substrate, absorbance (405 nm) of wells is monitored for 1 hour, and activity is calculated as the mean rate of change in absorbance during this interval.
Inhibition of Ich-2 enzyme is assayed as described above for ICE, except that enzyme is used at 64 nM, and 60 µM of the Ich-2-specific substrate Ac-Leu-Glu-Val-Asp-pNA is used instead of the ICE substrate Ac-Tyr-Val-Ala-Asp-pNA.

Assay [2] has as its target T2, ICE (Homo sapiens, UniProt P29466).
T2 sequence (P29466 120-297 limits assumed): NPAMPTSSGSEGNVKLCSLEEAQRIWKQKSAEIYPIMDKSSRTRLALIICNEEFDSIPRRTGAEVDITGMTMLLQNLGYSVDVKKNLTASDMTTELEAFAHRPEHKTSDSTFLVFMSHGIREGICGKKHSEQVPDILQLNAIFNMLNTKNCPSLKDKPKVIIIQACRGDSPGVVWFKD
T2 sequence (P29466 317-404 limits assumed): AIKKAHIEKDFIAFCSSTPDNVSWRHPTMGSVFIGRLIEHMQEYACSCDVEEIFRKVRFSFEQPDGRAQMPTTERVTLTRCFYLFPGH
The assay is described as follows: ICE inhibition, Ki determination (fluorogenic substrate Ac-Tyr-Val-Ala-Asp-AMC). As to conditions: 15 µM Ac-Tyr-Val-Ala-Asp-AMC, 0.5 nM enzyme, 30°C, reversible competitive model. Type of assay: biochemical.

Assay [3] concerns the target T2, ICE. The assay is described as follows: ICE Colorimetric Dose-Response (IC50) Assay. The assay is classed as biochemical. As to conditions: 60 minutes preincubation, 50 µM Ac-Tyr-Val-Ala-Asp-pNA, 25°C. Summed up:
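Human ICE (~24 nM in HGE buffer, pH 7.5, activated with 5 mM DTT) preincubated 60 min at ambient temperature with two-fold serial inhibitor dilutions, in triplicate. Ac-Tyr-Val-Ala-Asp-pNA added at 50 µM; A405 followed for 1 h at 25°C starting 5 min after substrate, activity taken as mean rate.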

Assay [4] concerns IL-1β production in human peripheral blood mononuclear cells (PBMCs). The assay is described as follows: PBMC Cellular Assay - IC50 Determinations (LPS-stimulated IL-1β production, ELISA). The assay is classed as cell-based. As to conditions: human PBMCs stimulated overnight with 10 ng/mL LPS, mature IL-1β by ELISA. In short, it runs like this: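 Ficoll-isolated human PBMCs (10^6/well, RPMI with 2% human AB serum) were stimulated overnight with LPS 10 ng/mL (E. coli 0111:B4) with or without compound. Mature IL-1β in medium measured by ELISA; viability checked by MTT over a further 4 h.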

Molecules are shown by their SMILES. pIC50, pKi: −log10 of the molar value. Where a name gives a salt, the structure may show the parent alone.

Consider `CC(C)[C@H](CC(=O)NCCc1cn(C)c2ccccc12)C(=O)NC(CC(=O)O)C(=O)CNS(=O)(=O)CC12CCC(CC1)C2(C)C` (some centres unmarked) [Example 25], for which the pIC50 in assay [1] was 5.45; in assay [3], 7.32; in assay [4] it was 5.96. This compound also gave a pKi in assay [2] of 8.24.

As for `CC(C)C(CC(=O)NCCCc1ccc2ccccc2n1)C(=O)NC(CC(=O)O)C(=O)CNS(=O)(=O)CC12CCC(CC1=O)C2(C)C` (centres unmarked) [Example 27, 5-(7,7-Dimethyl-2-oxo-bicyclo[2.2.1]hept-1-ylmethanesulfonylamino)-3-{3-methyl-2-[(3-quinolin-2-yl-propylcarbamoyl)-methyl]-butyrylamino}-4-oxo-pentanoic acid], the pIC50 was 5.00 in assay [1], 6.83 in assay [3] and 6.00 in assay [4]. Moreover, the pKi in assay [2] was 7.76.

Consider `CC(C)C(CC(=O)NCCc1ccccc1)C(=O)NC(CC(=O)O)C(=O)CNS(=O)(=O)CCc1ccccc1` (centres unmarked) [Example 5, 3-[3-Methyl-2-(phenethylcarbamoyl-methyl)-butyrylamino]-4-oxo-5-(2-phenyl-ethanesulfonylamino)-pentanoic acid], for which the negative logarithm of the IC50 (pIC50) in assay [1] was 5.04; in assay [3], 5.45; in assay [4], 4.46. In addition, the pKi in assay [2] was 6.47.

`CC(C)C(CC(=O)NCCCc1ccccc1)C(=O)NC(CC(=O)O)C(=O)COc1ccc2oc(=O)ccc2c1` (centres unmarked) [Example 13, 3-{3-Methyl-2-[(3-phenyl-propylcarbamoyl)-methyl]-butyrylamino}-4-oxo-5-(2-oxo-2H-chromen-6-yloxy)-pentanoic acid]: the pIC50 is 6.60 in assay [1], 7.28 in assay [3] and 5.63 in assay [4]. In assay [2], this compound had a pKi of 8.17.

With `CC(C)C(CC(=O)N(C)CCc1ccccc1)C(=O)NC(CC(=O)O)C(=O)CNS(=O)(=O)CC12CCC(CC1=O)C2(C)C` (centres unmarked) [Example 11, 5-(7,7-Dimethyl-2-oxo-bicyclo[2.2.1]hept-1-ylmethanesulfonylamino)-3-{3-methyl-2-[(methyl-phenethyl-carbamoyl)-methyl]-butyrylamino}-4-oxopentanoic acid], the pIC50 in assay [1] is 4.80; in assay [3] it was 6.36; in assay [4] it was 5.26. The compound also showed a pKi in assay [2] of 7.24.

Regarding `CC(C)C(CC(=O)NCCc1ccccc1)C(=O)NC(CC(=O)O)C(=O)CNS(=O)(=O)CC12CCC(CC1=O)C2(C)C` (centres unmarked) [Example 3, 5-(7,7-Dimethyl-2-oxo-bicyclo[2.2.1]hept-1-ylmethanesulfonylamino)-3-[3-methyl-2-(phenethylcarbamoyl-methyl)-butyrylamino]-4-oxo-pentanoic acid], the figures for the pIC50 in assay [1], in assay [3] and in assay [4] were 5.33, 6.40 and 5.52, respectively. This compound had a pKi in assay [2] of 7.35.

Turning to `Cc1cc2ncn(CCNC(=O)CC(C(=O)NC(C=O)CC(=O)O)C(C)C)c2cc1C` (centres unmarked) [Example 23, 3-(2-{[2-(5,6-Dimethyl-benzoimidazol-1-yl)-ethylcarbamoyl]-methyl}-3-methyl-butyrylamino)-4-oxo-butyric acid, trifluoroacetate salt], the pIC50 was 5.35 in assay [1], 7.84 in assay [3] and 5.44 in assay [4]. The same compound gave a pKi in assay [2] of 8.54.

For `CC(C)C(CC(=O)NCCn1cnc2ccccc21)C(=O)NC(CC(=O)O)C(=O)CNS(=O)(=O)CC12CCC(CC1=O)C2(C)C` (centres unmarked) [Example 30, 3-{2-[(2-Benzoimidazol-1-yl-ethylcarbamoyl)-methyl]-3-methyl-butyrylamino}-5-(7,7-dimethyl-2-oxo-bicyclo[2.2.1]hept-1-ylmethanesulfonylamino)-4-oxo-pentanoic acid], the pIC50 is 5.50 in assay [1], 8.28 in assay [3] and 6.39 in assay [4]. Also, the pKi in assay [2] is 8.96.
